Experimental data from PubChem BioAssay (NCI).
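Growth conditions: 96-well plates. Treatment: test compound, 48 hours, 5 concentrations. Analysis: linear interpolation between bracketing concentrations; unreached endpoints set to highest concentration. The concentration for full growth arrest is given as TGI.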

What was measured:
Experiment in all cases: DTP human tumour cell line panel, 48 h
COLO 205 colon = test system: COLO 205 colon
EKVX NSCLC = test system: EKVX NSCLC
HCT-15 colon = test system: HCT-15 colon
IGROV1 ovarian = test system: IGROV1 ovarian
MALME-3M melanoma = test system: MALME-3M melanoma
MCF7 breast = test system: MCF7 breast
MDA-MB-231 breast = test system: MDA-MB-231 breast
MDA-N = test system: MDA-N
NCI-H460 lung = test system: NCI-H460 lung
NCI-H522 lung = test system: NCI-H522 lung
OVCAR-3 ovarian = test system: OVCAR-3 ovarian
RXF 393 renal = test system: RXF 393 renal
SK-MEL-28 melanoma = test system: SK-MEL-28 melanoma
SW-620 colon = test system: SW-620 colon
TK-10 renal = test system: TK-10 renal
UACC-257 melanoma = test system: UACC-257 melanoma
UACC-62 melanoma = test system: UACC-62 melanoma
UO-31 renal = test system: UO-31 renal
ACHN renal = test system: ACHN renal
NCI/ADR-RES ovarian = test system: NCI/ADR-RES ovarian

Row | Compound | TGI (COLO 205 colon) [µM] | TGI (EKVX NSCLC) [µM] | TGI (HCT-15 colon) [µM] | TGI (IGROV1 ovarian) [µM] | TGI (MALME-3M melanoma) [µM] | TGI (MCF7 breast) [µM] | TGI (MDA-MB-231 breast) [µM] | TGI (MDA-N) [µM] | TGI (NCI-H460 lung) [µM] | TGI (NCI-H522 lung) [µM] | TGI (OVCAR-3 ovarian) [µM] | TGI (RXF 393 renal) [µM] | TGI (SK-MEL-28 melanoma) [µM] | TGI (SW-620 colon) [µM] | TGI (TK-10 renal) [µM] | TGI (UACC-257 melanoma) [µM] | TGI (UACC-62 melanoma) [µM] | TGI (UO-31 renal) [µM] | TGI (ACHN renal) [µM] | TGI (NCI/ADR-RES ovarian) [µM]
1 | CC(/C=N\NC(=S)N(C)C)=N/NC(=S)N(C)C | 33.7 | > 100 | > 54.3 | 16.9 | > 34.2 | > 100 | > 100 | > 100 | > 100 | 20.6 | > 22.8 | 2.58 | > 100 | > 100 | > 100 | > 100 | > 100 | > 39.2 |  | 
2 | O=C(O)C1(Cc2ccc3c(c2)CCC3)Cc2ccccc2C1=O (centres undefined) | > 100 | > 100 | > 100 | > 100 | > 100 | > 100 | > 100 | > 100 | > 100 |  | > 100 | > 100 | > 100 | > 100 | > 100 | > 100 | > 100 | > 100 | > 100 | > 100
3 | CC1CN=C(NS(=O)(=O)c2cc(C(=O)Nc3ccc(F)cc3)c(Cl)cc2S)NN1 (centres undefined) | > 100 | > 100 | > 100 | > 100 | 70.1 | > 100 | > 100 |  | > 100 | 94.2 | > 100 |  | > 100 | > 100 | > 100 | > 100 | > 100 | > 100 | > 100 | > 100
4 | CCOP(=O)(OCC)[C@]12C[C@@H](C)C=C[C@H]1COC2=O | > 100 | > 100 |  |  | > 100 | > 100 | > 100 | > 100 | > 100 | > 100 | > 100 | > 100 | > 100 | > 100 | > 100 | > 100 | > 100 | > 100 | > 100 | 
5 | COc1ccc(CCNC(=O)CCc2ccccc2CO)cc1OC | > 100 | > 100 | > 100 | > 100 |  | > 100 | > 100 |  | > 100 | > 100 | > 100 | > 100 | > 100 | > 100 | > 100 | > 100 | > 100 | > 100 | > 100 | > 100
6 | C/C(=N\Nc1nc2ccccc2o1)c1cc(C)ncn1 | > 40.8 | 2.95 | 35.3 | 1.51 | 33.1 | > 85.3 | 75 | > 100 | 30.5 |  | > 54.7 | 32.1 | > 100 | > 100 |  |  |  | 0.311 | 29.3 | 0.0739
7 | Cn1c2ccccc2c2nc3ccccc3c(Cl)c21 | > 100 |  | > 100 | > 100 | > 100 | > 100 | > 100 |  | > 100 | > 100 | > 100 | > 100 | > 100 | > 100 | > 100 | > 100 | > 100 |  |  | > 100
8 | CC(=O)c1sc(Nc2ccc(Cl)c(Cl)c2)nc1C | > 100 | > 100 | > 100 | > 100 | > 100 | > 100 | > 100 | > 100 | > 100 |  | > 100 | > 100 | > 100 | > 100 | > 100 | > 100 | > 100 | > 100 | > 100 | > 100
9 | Nc1cc(N2CCOCC2)nc(=O)n1-c1ccc(Cl)cc1 | > 100 | > 100 | > 100 | > 100 |  | > 100 |  | > 100 | > 100 |  | > 100 |  | > 100 | > 100 |  | > 100 | > 100 | > 100 | > 100 | > 100
10 | CCCC(=O)Oc1ccc2c(C)cc(=O)oc2c1OC(=O)CCC | > 100 | > 100 | > 100 | > 100 | > 100 | > 100 | > 100 | > 100 |  |  | > 100 |  | > 100 | > 100 | > 100 | > 100 | > 100 | > 100 | > 100 | > 100
11 | CN(/N=C\c1ccc2ccccc2c1)C1=NCCN1 | 31.9 | 63.3 | > 100 | 41.6 | 29.7 | 38.7 | 36.1 |  | 30.6 | 32 | 99.6 | 23.9 | 28.4 | 41.7 | 28.5 | 29.5 | 38.8 | 31.7 | 60 | 82.1
12 | CN(NC(=O)/C(=C\c1ccco1)NC(=O)c1ccccc1)c1cn[nH]c(=O)c1Cl | > 100 | > 100 | > 100 | > 100 | > 100 | > 100 | > 100 |  | > 100 | 89.3 | > 100 | > 100 | > 100 | > 100 | > 100 | > 100 | > 100 | > 100 | > 100 | > 100
13 | COC(=O)c1nc(-c2nc(CCNC(=O)OC(C)(C)C)sc2Cl)sc1Cl | > 100 | > 100 | > 100 | > 100 | > 100 | > 100 |  | > 100 | > 100 |  | > 100 | > 100 | > 100 | > 100 | > 100 | > 100 | > 100 | > 100 | > 100 | > 100
